Like-named read-outs stand apart in the source and are kept apart here.
How the values were obtained:
[1] = target: T1, butyrylcholinesterase from equine serum (EqBChE) (Equus caballus, UniProt P81908); assay: biochemical; type: biochemical; conditions: for IC50: EqBChE, n = three independent experiments; for IC50 / inhibition at 100 µM: mean ± SD; for inhibition at 100 µM: n = three, read-out: %Inhibition BChE; for butyrylcholinesterase inhibitory activity (in words): screened at 100 µM
T1 construct: butyrylcholinesterase from equine serum (eqBChE); purchased Sigma-Aldrich; host or cells: equine serum
T1 sequence (P81908 whole entry): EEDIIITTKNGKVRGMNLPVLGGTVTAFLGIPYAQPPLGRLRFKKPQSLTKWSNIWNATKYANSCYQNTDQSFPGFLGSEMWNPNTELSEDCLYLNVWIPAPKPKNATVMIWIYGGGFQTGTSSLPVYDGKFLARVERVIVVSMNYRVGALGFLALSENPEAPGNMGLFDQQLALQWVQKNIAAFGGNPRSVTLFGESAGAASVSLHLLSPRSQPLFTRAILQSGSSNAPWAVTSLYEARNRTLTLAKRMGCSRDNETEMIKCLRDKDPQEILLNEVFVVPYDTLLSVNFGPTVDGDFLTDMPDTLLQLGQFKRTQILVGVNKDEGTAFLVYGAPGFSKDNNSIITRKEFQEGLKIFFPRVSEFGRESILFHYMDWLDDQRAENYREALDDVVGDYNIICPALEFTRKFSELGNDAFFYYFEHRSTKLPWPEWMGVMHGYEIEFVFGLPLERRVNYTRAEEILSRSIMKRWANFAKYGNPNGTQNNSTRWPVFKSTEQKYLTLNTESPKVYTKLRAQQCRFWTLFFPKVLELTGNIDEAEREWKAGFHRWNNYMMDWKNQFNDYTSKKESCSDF
Protocol: Initially, acetylcholinesterase and butyrylcholinesterase inhibitory activities of the compounds were screened at the concentration of 100 µM. […] The raw data of IC50 in this study were able to be accessed in Supplementary Materials.
Human recombinant acetylcholinesterase (HuAChE), butyrylcholinesterase from equine serum (eqBChE), acetylthiocholine iodide (ATCI), butyrylthiocholine iodide (BTCI) and 5,5′-dithiobis(2-nitrobenzoic acid) (DTNB) were gained from Sigma-Aldrich. Assays of acetyl- and butyrylcholinesterase inhibitory activity were performed according to Ellman’s method described previously. Briefly, these assays were performed as follows. The reaction mixture (250 µL), containing 50 µL of buffer (50 mM Tris-HCl buffer (pH 8.0), 0.1 M NaCl, 0.02 M MgCl2.6H2O), 25 µL of 1.5 mM of ATCI or BTCI, 25 µL of 100 µM of test compounds in EtOH and 125 µL of 3 mM DTNB were added. Then, 25 µL of HuAChE and equine serum of BChE in 50 mM Tris-HCl buffer containing 0.1% (w/v) BSA (pH 8.0). Reactions were initiated by the addition of the enzyme into the medium. […] Each experiment was repeated in triplicate.
The percentage of enzyme inhibitory activity (%Inhibition) was calculated by the following expression: %Inhibition = ((Mean velocity of blank-Mean velocity of sample) × 100)/Mean velocity of blank.

[2] = target: T2, human recombinant acetylcholinesterase (HuAChE) (Homo sapiens, UniProt P22303); assay: biochemical; conditions: for Selectivity BChE/AChE: Selectivity index for AChE: IC50 BChE/IC50 AChE
T2 construct: purchased Sigma-Aldrich
T2 sequence (P22303 32-614): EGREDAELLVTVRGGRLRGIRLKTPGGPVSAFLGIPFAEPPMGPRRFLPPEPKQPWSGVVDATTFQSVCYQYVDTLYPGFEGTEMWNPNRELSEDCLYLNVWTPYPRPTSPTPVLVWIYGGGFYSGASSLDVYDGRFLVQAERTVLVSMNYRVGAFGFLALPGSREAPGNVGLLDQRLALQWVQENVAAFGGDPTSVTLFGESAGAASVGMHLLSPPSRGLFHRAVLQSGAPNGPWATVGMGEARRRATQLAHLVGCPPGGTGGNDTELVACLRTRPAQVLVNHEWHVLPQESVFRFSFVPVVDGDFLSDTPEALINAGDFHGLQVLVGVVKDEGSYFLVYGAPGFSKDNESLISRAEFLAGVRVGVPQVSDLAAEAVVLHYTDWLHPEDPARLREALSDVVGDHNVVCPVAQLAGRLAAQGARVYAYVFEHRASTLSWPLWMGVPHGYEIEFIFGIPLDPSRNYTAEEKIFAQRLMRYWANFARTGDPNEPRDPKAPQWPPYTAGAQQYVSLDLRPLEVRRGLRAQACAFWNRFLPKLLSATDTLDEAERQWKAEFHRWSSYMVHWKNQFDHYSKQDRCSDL

[3] = Cytotoxicity, sulforhodamine B (SRB) assay; type: cell-based; conditions: human, SH-SY5Y neuroblastoma cells, up to 100 µM, read-out: LC50
Protocol: Selected compounds in the series were then evaluated for their cytotoxicity against SH-SY5Y neuron cells. […].
Figure 3 The cytotoxic effect of synthesized compounds on SH-SY5Y cells as determined by SRB assay. Cells were treated with the synthesized compounds at different concentrations for 48 h, and then SRB assay was performed. Data are means ± SD of three independent experiments, and %cell viability was calculated relative to nontreated control.
The cytotoxicity assay of the tested compounds against human SH-SY5Y neuroblastoma cells was measured using a sulforhodamine B (SRB) assay. The cells were cultured in Dulbecco’s modified Eagle’s medium supplemented with 10% fetal bovine serum (Gibco, Paisley, UK) and grown at 37 °C in a humid atmosphere containing 5% CO2. Cells (10,000 cells/well) were seeded in a 96-well plate and incubated at 37 °C, 5% CO2 for 24 h. The cells were then treated with or without various concentrations (0, 3.125, 6.25, 12.5, 25, 50, and 100 μM) of each compound for 48 h. After an incubation period, 40% (w/v) trichloroacetic acid (TCA) was added to the cells, and the cells were then incubated at 4 °C for 1 h. A total of 0.4% (w/v) SRB solution (100 μL) was added to each well, and the cells were incubated for 1 h at room temperature. The SRB solution was removed, and then the cells were washed three times with 1% (v/v) acetic acid, and they were allowed to dry at room temperature. The protein-bound dye was dissolved with 10 mM Tris base solution, and the absorbance was measured at 492 nm using a microplate reader.

[4] = target: T3, Human recombinant AChE (Homo sapiens, UniProt P22303); assay: Enzyme kinetic study of AChE inhibition (Lineweaver-Burk); type: biochemical
T3 construct: purchased Sigma-Aldrich
T3 sequence (P22303 32-614): as above
Protocol: […]. The kinetic assay of AChE inhibition was carried out at 0, 30, 50 and 60 µM of compound 6c. […]. [ATCI], substrate concentration (µM); V, reaction velocity (1/V (abs/min)^−1).
Kinetic studies of HuAChE were performed by Ellman’s method as described above. […]. Kinetic characterization of the hydrolysis of ATCI for HuAChE was carried out spectrometrically at 405 nm every 11 s for 2 min. A parallel control was run with the assay solution without inhibitor. The inhibition was evaluated by Lineweaver–Burk plot from substrate concentrations range between 10 to 250 µM for ATCI and inhibitor concentrations (0, 30, 50, 60 µM). The type of inhibition (competitive, uncompetitive, noncompetitive and mixed type inhibition) was calculated from the Michaelis–Menten equation was converted to Lineweaver–Burk equation into a straight line by plotting 1/velocity opposite to 1/[S]. Graphs were plotted by means of GraphPad Prism 7.03 for Windows (GraphPad Software, San Diego, CA, USA, www.graphpad.com, accessed on 13 May 2021).
From obtained equations of regression curves in the Lineweaver-Burk plot, the values of maximum velocity (Vm) and Michealis constant (Km) were calculated. Using non-linear regression (selected panel: enzyme kinetic inhibition/ mixed model inhibition) the values of Ki and alpha were determined. The alpha value defines the mechanism. […]

[5] = HuAChE, mean ± SD, n = three independent experiments, read-out: IC50 AChE

| SMILES | IC50 [1] [µM] | IC50 [2] [µM] | Selectivity BChE/AChE [2] | IC50 [2, 5] [µM] | inhibition at 100 µM [1] [%] | butyrylcholinesterase inhibitory activity (in words) [1] | also measured |
| --- | --- | --- | --- | --- | --- | --- | --- |
| c1ccc2nccnc2c1 [Compound 3a, Quinoxaline] | 40.6 ± 1.6 | 13.2 ± 4.1 | 3.07 |  |  |  |  |
| c1ccc(-c2cnc3ccccc3n2)cc1 [Compound 3b, 2-Phenylquinoxaline] | 14.9 ± 2.6 |  | 0.29 | 50.1 ± 2.6 |  |  |  |
| Cc1nc2ccccc2nc1C [Compound 3c, 2,3-Dimethylquinoxaline] |  | 7.25 ± 1.5 |  |  | 23.4 | no activity |  |
| Clc1ccc2nccnc2c1 [Compound 4a, 6-Chloroquinoxaline] |  | 23.9 ± 1.3 |  |  | 37.4 |  |  |
| Clc1ccc2ncc(-c3ccccc3)nc2c1 [Compound 4b, 7-Chloro-2-phenylquinoxaline] |  |  |  | 28.5 ± 1.6 | 41.2 |  |  |
| Cc1nc2ccc(Cl)cc2nc1C [Compound 4c, 6-Chloro-2,3-dimethylquinoxaline] |  |  |  | 10.7 ± 1.4 | 37.4 | no activity |  |
| O=[N+]([O-])c1ccc2nccnc2c1 [Compound 5a, 6-Nitroquinoxaline] | 42 ± 1 |  | 1.97 | 21.3 ± 1.5 |  |  |  |
| O=[N+]([O-])c1ccc2ncc(-c3ccccc3)nc2c1 [Compound 5b, 7-Nitro-2-phenylquinoxaline] | 61 ± 3.4 |  | 1.56 | 39 ± 0.8 |  |  |  |
| Cc1nc2ccc([N+](=O)[O-])cc2nc1C [Compound 5c, 2,3-Dimethyl-6-nitroquinoxaline] |  |  |  | 8.42 ± 1.8 | 32.1 | no activity |  |
| Nc1ccc2nccnc2c1 [Compound 6a, Quinoxalin-6-amine] |  | 0.74 ± 0.5 |  |  | 32.9 |  | CC50 at 48 h [3]: > 100 µM |
| Nc1ccc2ncc(-c3ccccc3)nc2c1 [Compound 6b, 3-Phenylquinoxalin-6-amine] |  |  |  | 1.31 ± 0.2 | 44.1 |  | CC50 at 48 h [3]: > 100 µM |
| Cc1nc2ccc(N)cc2nc1C [Compound 6c, 2,3-Dimethylquinoxalin-6-amine] |  |  |  | 0.077 ± 0.01 | 29.2 | no activity | type of AChE inhibition ([4]; Lineweaver-Burk plot): mixed-type inhibitor; Alpha ([4]; non-linear regression, mixed model inhibition): 0.1875; CC50 at 48 h [3]: > 100 µM |

Reference: publication PMC8400540, “Synthesis, Biological Evaluation, and In Silico Studies of New Acetylcholinesterase Inhibitors Based on Quinoxaline Scaffold” (Molecules, 2021)
